Results on 1 compound are retold here after patent US20070117864A1, “Composition for preventing and treating hepatoma” (Tokyo University of Agr. & Tech. TLO Co., Ltd., priority 2003, published 2007).

The subject of one assay is AH109A cells. Briefly: apoptosis of AH109A cells by flow cytometry, Annexin V/PI double staining. In kind it is cell-based, rat. Particulars: for proportion of the fourth quadrant (early stage of apoptosis) / proportion of the second quadrant (secondary necrosis) / proportion of the third quadrant (live cells): 3 hours. As to the method:
The analysis was performed using an ANNEXIN V FITC kit (IMMUNOTECH, Marseille, France). AH109A cells were inoculated at the density of 1×10^6 cells with 3 ml of the experimental medium in a dish with 6 cm in diameter (NUNC), and the cells were cultured for 0, 3 and 6 hours in a CO2 incubator at 37° C. The AH109A cells cultured under the respective treatment conditions were recovered, centrifuged for 5 minutes at 4° C. at 1000 rpm (90×g), and washed once with PBS (−). Subsequently, the cells was suspended in 490 μl of a binding buffer, and 5 μl of a PI solution and 5 μl of ANNEXIN V FITC, and these substances were gently mixed. The cells were stained by allowing the preparation to stand quietly for 10 minutes on ice with the light blocked. The apoptosis of the cells was analyzed using a flow cytometer (EPICS ELITE ESP; Beckman-Coulter, Hialeah, Fla., USA).

Assay [1] is described as follows: serum lipid peroxide levels (TBARS) in hepatoma-bearing rats. It counts as in vivo, rat. The settings on record: mean ± SEM of 11 rats. As to the method: Male Donryu rats of four weeks old were purchased from NRC Haruna, Gumma, Japan, and were preliminarily fed for 6 days in quintuple cages in a room with a controlled environment with light period of 8:00 to 20:00, room temperature of 22±1° C., and relative humidity of 60±5%. For the first 3 days, the animals were fed ad libitum with a stock pellet diet (CE-2; CLEA Japan, Tokyo), and for the next 3 days, they were fed a basal diet containing 20% milk casein (20C) (Table 1) ad libitum together with tap water in a glass container. Following the completion of this preparatory raising, the rats were divided into three groups (11 animals per group) with equal average body weights of the respective groups were equal, and 1.0×10^7 of AH109A cells suspended in PBS (−) were transplanted in the back of all the rats. From the time immediately after transplantation, in the respective experimental groups, the animals were fed the experimental diets shown in Table 2. During the experimental period, the body weight, food intake and solid tumor size (sum of length, width and height) were measured everyday. […] LPO levels were determined by measuring thiobarbituric acid-reactive substances (TBARS) by the Yagi fluorescence method using a lipid peroxide test Wako (Wako Pure Chemical Industries).

A short description of assay [2]: fecal steroid excretion in hepatoma-bearing rats. It counts as in vivo, rat. The settings on record: for Steroid excretion Bile acids / Steroid excretion Neutral sterols: feces, final two days, mean ± SEM of 11 rats. As to the method:
Male Donryu rats of four weeks old were purchased from NRC Haruna, Gumma, Japan, and were preliminarily fed for 6 days in quintuple cages in a room with a controlled environment with light period of 8:00 to 20:00, room temperature of 22±1° C., and relative humidity of 60±5%. For the first 3 days, the animals were fed ad libitum with a stock pellet diet (CE-2; CLEA Japan, Tokyo), and for the next 3 days, they were fed a basal diet containing 20% milk casein (20C) (Table 1) ad libitum together with tap water in a glass container. Following the completion of this preparatory raising, the rats were divided into three groups (11 animals per group) with equal average body weights of the respective groups were equal, and 1.0×10^7 of AH109A cells suspended in PBS (−) were transplanted in the back of all the rats. From the time immediately after transplantation, in the respective experimental groups, the animals were fed the experimental diets shown in Table 2.
During the experimental period, the body weight, food intake and solid tumor size (sum of length, width and height) were measured everyday. On the day that the animals were killed, animals were deprived of experimental diets at 9:00, but freely given water until they were killed 4 hours later. Blood was collected from carotid, and the liver and solid tumors were excised. The collected blood was allowed to stand for approximately 2 hours at room temperature, and then centrifuged for 10 minutes at 3000 rpm (1750×g), 4° C., to obtain serum. This blood serum was frozen and stored at −20° C. The livers and solid tumors were washed with physiological saline, blotted on filter paper, and weighed. Furthermore, feces from the 19th to 21st days after transplantation were collected, and these feces were frozen and stored at −20° C. for the measurement of the amounts of steroids excreted from the body.
The amounts of fecal steroids, neutral sterol (NS) and bile acid (BA), excreted into feces were measured. The feces were dried at 60° C., and the dry weight was measured; then, the feces were pulverized using a mixer and a mortar and pestle. Approximately 100 mg of feces was precisely weighed and placed in a screw-capped test tube, and then was saponified for 1 hour at 70° C. by adding 1.5 ml of 4 N potassium hydroxide solution and 1 ml of ethanol. The NS was extracted by transferring the n-hexane layer to a test tube by adding 3 ml of n-hexane to a test tube, shaking this mixture and then subjecting to centrifugal separation at 3000 rpm (1750×g) for 10 minutes. The same operation was performed three times. Subsequently, with […] of distilled water to dilute potassium hydroxide concentration thereof to 1.2 N, and the mixture was subjected to a high-pressure treatment (autoclaved) for 3 hours at 121° C., to deconjugate the conjugated BA. After the preparation was allowed to stand until cool, BA was extracted by adding 3 ml of diethyl ether after adjusting the pH of the solution to 1 with 0.8 ml of hydrochloric acid, and the resulting mixture was shaked; then, subjecting this preparation to centrifugal separation for 10 minutes at 3000 rpm (1750×g), to transfer the diethyl ether layer to a test tube. This operation was performed three times.
The n-hexane extract was dried; then, was added with 0.4 ml of isopropanol and 1.6 ml of 10% Triton X-100. to dissolve the NS. An aliquot (0.24 ml) of this solution was sampled, and was subjected to measurement of NS using a cholesterol C test Wako. […]

Marks after values point to notes of the source that are not given here.

As to `O=C1OCC(Cc2cccc(O)c2)C1Cc1cccc(O)c1` (stereo not shown) [Enterolactone, enterolactone], in the assay with AH109A cells (6.25 μM ENL), the “proportion of the fourth quadrant (early stage of apoptosis)” value was determined as 8.4%, the “proportion of the second quadrant (secondary necrosis)” value stood at 2.8% and the “proportion of the third quadrant (live cells)” value was 88.1%. Besides, in the assay on AH109A cells (12.5 μM ENL), the “proportion of the fourth quadrant (early stage of apoptosis)” value is on record as 11.4%, the “proportion of the second quadrant (secondary necrosis)” value is 2.3% and the “proportion of the third quadrant (live cells)” value is listed as 86.1%. Moreover, in the assay on AH109A cells (6.25 and 12.5 μM ENL), the “proportion of cells in the early stage of apoptosis” value is on record as “increased”, the “proportion of cells showing secondary necrosis” value was “increased to some extent” and the “proportion of live cells” value was “decreased in a dose-dependent manner”. The “Serum TBARS” value in assay [1] (diet 10 ppm) was 7.31 ± 0.37 nmol/mL. For the same compound, the “Serum TBARS” value in assay [1] (diet 100 ppm) is 6.87 ± 0.51 nmol/mL. Besides, in assay [2] (ENL diet groups versus control diet group), the “amounts of neutral sterol and bile acid excreted into the feces” value was “significant and dose-dependent increase”. Besides, in assay [2] (diet 10 ppm), the “Steroid excretion Bile acids” value is recorded as 18.7 ± 1.49^ab μmol/2 days and the “Steroid excretion Neutral sterols” value was 29.5 ± 2.7^b μmol/2 days. Further, in assay [2] (diet 100 ppm), the “Steroid excretion Bile acids” value was 20.8 ± 1.89^b μmol/2 days and the “Steroid excretion Neutral sterols” value is 30.9 ± 2.18^b μmol/2 days.
